Reference: US10183027B2, “Lanthanide toolbox for multi-modal, non-invasive tumor specific theranostic prodrugs” (priority 2016, dated 2019)
Where “and” joins values, the source holds several entries; their conditions need not be identical. Identical values can stand only once.

Experiments:
[1] = test system: HeLa cells; experiment: Two-photon induced activation, in vitro imaging and photo-cytotoxicity of PtGdL; format: cell-based, human
Experimental: The cells were incubated with PtGdL (1, 2, 5, 10 μM) for 12 hours. The complexes (cell impermeable and dissolved in the medium) were washed out with PBS buffer. The cells with complexes were placed in the tissue culture chamber (5% CO2, 37° C.) inside the two-photon confocal microscope. In vitro images were captured by using the Leica SP8 (upright configuration) confocal microscope which equipped with femto-second laser (wavelength: 700 to 1000 nm) and 40×/60× oil immersion objective. […]

[2] = test system: HeLa cells; experiment: MTT dark cytotoxicity in HeLa cells (PtGdL study); format: cell-based, human; conditions: 24 hours
Experimental: (§1) Human cervical cancer HeLa cells were grown in Dulbecco's Modified Eagle Medium (DMEM). Human lung diploid fibroblasts-MRC-5 and prostate stromal-WPMY-1 cells were obtained from the cell resource center of Shanghai Institute of Biological Sciences, Chinese Academy of Sciences. MRC-5 and WPMY-1 are growth in MEM (GIBCO 41500034) and supplemented with 10% (v/v) fetal bovine serum, 1% penicillin and streptomycin at 37° C. and 5% CO2. […] After that, formazan was fully dissolved in DMSO through oscillation. Finally, the absorbance of solution was measured with Biotek Power wave xsMicroplate Reader at the wavelength of 570 nm and 690 nm.

[3] = T1 weighted in vivo 7T MRI imaging and bio-distribution; design: species or system BALB/c mice
Experimental: In vivo 7T MRI measurements of the disclosed compounds in normal mice were conducted. The images were acquired at various time points after solutions of commercial GdDOTA complex (DOTAREM), GdL and PtGdL were injected. […] GdL was immediately captured by the liver, spleen and the kidneys (FIGS. 13A and 14A). […] In comparison to GdDOTA, GdL presents a similar pattern of biodistribution in the kidneys but a slower clearance rate in the liver (0.002 vs 0.016 enh/min). However, PtGdL presents a delayed capture, longer remanence and clearance compared to GdL.
All animal experiments were performed in accordance with the institutional animal protocol guidelines in place at Paris Descartes University, (saisine CEEA34.JS.142.1) and approved by the Institute's Animal Research Committee.
Wild-type female 8 weeks BALB/c mice (Elevage Janvier, Le Genest-St-Isle, France) were anaesthetized with isoflurane (1.5%, with air/O2 0.5/0.25 L·min^−1) inhalation and placed in a dedicated contention cradle. 300 μL of Gadolinium complexes in 0.9% physiological serum were intravenously injected via the tail vein while the mouse was in the scanner. For reproducibility studies, 3 mice per group were injected (n=3).
The scanning protocol was developed using Bruker Paravision 5.1 software. DCE Dynamic contrast Enhanced sequence was recorded using Intragate Flash multislices for motion free artifacts T1 weighted sequence (TR=100 ms, TE=4 ms, alpha=80°). The final images have a spatial resolution of […] in plane. The total scan time was in the order of 3 min 14 s per images. The dynamic follow-up is measured during in a scan time of 40 minutes.
To study the biodistribution of each complex, several regions of interest (ROI) were monitored: the liver, muscle, spleen, kidney, and vessels. The corresponding MRI intensity related to the amount of the Gd complex contrast agents was plotted versus time to visualize the uptake and clearance of each complex into the organs. Comparison with commercial GdDOTA (DOTAREM, Guerbet, France) was also performed at the corresponding concentration of Gd (10 mM).

[4] = test system: WPMY-1 cells; experiment: MTT dark cytotoxicity in WPMY-1 cells (PtGdL study); format: cell-based, human; conditions: 24 hours
Experimental: as §1

[5] = test system: HeLa cells; experiment: Dark and photo cytotoxicity of RuEuL against HeLa cells; format: cell-based, human; conditions: HeLa
Experimental: To determine the potential of RuEuL as a photo-controlled prodrug cell cytotoxicity studies were performed on human cervical cancer (HeLa) cells, and EuL as control (FIGS. 25A and 25B). Cells were incubated 6 hours in the dark before irradiation (488 nm, 1 J); dark controls were run in parallel.

[6] = test system: HeLa cells; experiment: Confocal microscopy of light-induced cytotoxicity of RuEuL; format: cell-based, human; conditions: 50 μM RuEuL or 10 μM PtEuL, 6 hours, 7 mW
Excerpt: The light-induced cytotoxicity of RuEuL towards HeLa cells was also investigated by confocal microscopy (FIG. 26B) with the PtEuL complex tested under identical conditions for comparison. […] In cell culture studies, red Eu(III) emission from RuEuL was observed after 15-min irradiation. (FIG. 26A) The emission intensity increased with longer irradiation time because more excitation energy induced the dissociation of more Ru(II) moieties from the parent molecules, and the resulting EuL units generated stronger light emission. […] PtEuL is photo-activated upon ultraviolet A irradiation (λ=365 nm). However, UVA irradiation could cause severe adverse effects on human cells.

[7] = Photo-induced dissociation and dark stability of RuEuL in aqueous solution; format: physicochemical
Experimental: The photo-induced dissociation of RuEuL was simultaneously studied by emission (FIG. 21) spectroscopy, and by HPLC (FIG. 22) of the RuEuL solution (5 μM in H2O) after continuous irradiation with visible light (λirr.=488 nm, 1 W) during various times (1-8 min). After irradiation, turned-on europium emission is observed. This observation can be explained by the existence of dissociative states on Ru(II), which were proposed by Saddler et al. The photo-dissociation products, EuL and [Ru(OH)(bpy)2(H2O)]^+, have been further qualitatively identified by HPLC (FIG. 22). Before light irradiation, only one HPLC peak corresponding to RuEuL (retention time, R=11.3 min) is observed. After irradiation, this peak disappears, and two peaks of dissociated photoproducts appear.
In order to obtain the exact amount of the photo-released ruthenium(II) moiety for biomedical purpose and to evaluate drug release in real time, quantitative analysis is required. It can be achieved by LC/ESI-MS for simultaneous detection of the photo-products EuL and [Ru(OH)(bpy)2(H2O)]^+. Moreover, the switchable europium(III) emission can be considered as a real-time signaling technique for the released anticancer Ru(II) complexes and can also be exploited quantitatively. […]

[8] = test system: Plasmid DNA; experiment: Agarose gel electrophoresis of plasmid DNA with RuEuL / EuL; format: biochemical; conditions: 20 μM
Experimental: Furthermore, the interaction of photo-activated RuEuL with DNA was examined by agarose gel electrophoresis (FIG. 24). Plasmid DNA (22.5 μg/mL in Tris/EDTA (TE) buffer) was incubated with the compounds (20 μM), irradiated by 488 nm light (dose 50 J m^−2) or not (control) and then subjected to 1% agarose gel electrophoresis. The separated DNA was stained with GelRed Nucleic Acid Stain (BIOTIUM) and imaged using Tanon 1600 Gel Imaging System (Tanon Science & Technology Co., Ltd).

[9] = test system: Plasmid DNA; experiment: Agarose gel electrophoresis of plasmid DNA after UVA irradiation (PtEuL); format: biochemical; conditions: 20 μM, UVA light dose 50 J m^−2
Excerpt: The DNA gel images were obtained using GelRed Nucleic Acid Stain (BIOTIUM).
Direct binding of PtEuL with DNA in dark were studied by circular dichroism (CD). […] The interaction of photo-activated PtEuL with DNA was examined by agarose gel electrophoresis (FIG. 29B). After UVA irradiation with PtEuL, conversion of the supercoiled conformer of the plasmid DNA to its open-circular conformer, which indicates DNA nicking (single strand break) and linear conformer, which indicates double strand break, is clearly seen.

[10] = Dynamic light scattering of PtGdL solution; format: physicochemical; conditions: aqueous solution, 25.0° C.
Experimental: Dynamic Light Scattering (DLS) to investigate the presence of aggregates in a PtGdL solution was performed in Mavernm Zetasizer Nano-S equipment, at 25.0° C.

[11] = Photo-induced dissociation of the cisplatin unit in tris buffer monitored by emission; format: physicochemical; conditions: tris buffer pH 7.4, UV 365 nm, 5 mW
Experimental: One of the key issues is the photodissociation level of the Pt moiety from the compounds described herein. The triplet states of the chromophores before and after photo-release the drug or upon binding with αvβ3 isoform were measured. Based on the synthetic protocols described herein, La (lanthanum) and Gd (gadolinium) analogs can be synthesized to measure the triplet states of the chromophores as well. The measurements of the triplet states of these chromophores phosphorescence and their phosphorescence lifetime was undertaken at low temperature (77K). The photodissociation kinetics of PtEuL were investigated by monitoring the emission spectrum with different irradiation times of UVA/NIR (light dosage=4 J cm^−2). The plot of responsive and initial emission intensity at 615 nm (^5D0→^7F2) vs time will be fitted in the exponential growth and decay equation to obtain the pseudo-first order rate constant.
The linear light induced dissociation of PtGdL in tris buffer (20 mM Tris base, 50 mM NaCl, pH 7.4) was monitored by determination of the emission intensity of solution of PtGdL in tris buffer with different light dosage of 365 nm UV light. In general, 3 mL of the solution of PtGdL (3 μM in tris buffer) in a 3.5 mL quartz cuvette was irradiated with a 365 nm UV lamp (5 mW) with stirring. The emission spectra of the solution were recorded at different time points (0, 1, 3, 5, 7, 10, 15, 20, 30, 45, 60, 75 and 90 min).
(Ln=Eu or Gd). The solution-state electronic adsorption and emission spectra of all the complexes and the ligand were recorded at 298 K (FIGS. 28A-28D). The EuL complex is the product of PtEuL after photo-dissociation and was used to monitor the photo-dissociation of [Pt—(NH3)2Cl]^+ from PtEuL. […] The photo-dissociation of PtEuL (3 μM in Tris-buffer, pH=7.4, 50 mM NaCl) was monitored by the variation of the Eu emission (λem=615 nm, ^5D0→^7F2) with the irradiation time. […] The pseudo-first order rate constant k was determined to be 0.53 min^−1 under these experimental conditions (FIG. 28D).

With `O.O=C([O-])CN1CCN(CC(=O)[O-])CCN(Cc2cc(C#Cc3ccc(NC(=O)c4ccncc4)cc3)ccn2)CCN(CC(=O)[O-])CC1.[Gd+3]` [GdL] the “cell death, control under the same experimental conditions” value ([1]; with 730 nm laser irradiation) was “no significant cell death”, the IC50 [2] was > 200 µM and the “decrease of signal enhancement” value ([3]; 4 hours after injection) was 90%. For the same molecule, the “clearance rate in the liver” value ([3]; mice, i.v. tail vein) was 0.002 enh/min and the IC50 [4] was > 200 µM.

In the case of `O.O=C([O-])CN1CCN(CC(=O)[O-])CCN(Cc2cc(C#Cc3ccc(NC(=O)c4cc[n+]([Ru-4]56([Cl])([n+]7ccccc7-c7cccc[n+]75)[n+]5ccccc5-c5cccc[n+]56)cc4)cc3)ccn2)CCN(CC(=O)[O-])CC1.[Cl-].[Eu+3]` [RuEuL], the IC50 ([5]; 6 hours in the dark then irradiation (488 nm, 1 J), read-out: light IC50) is reported as 32.5 µM, the IC50 ([5]; dark, read-out: dark IC50) is reported as > 200 µM and the “cell damage and red emission on 488 nm laser irradiation” value [6] is reported as “cell lysis was detected after 15-min irradiation”. The “pseudo-first order rate constant k of photo-dissociation” value ([7]; 5 μM in H2O, visible laser irradiation, 1 W) was 0.43 min⁻¹, the “stability in the dark” value ([7]; dark, 37° C., 24 hours) was “stable” and the “migration of DNA with light excitation” value ([8]; 488 nm light, dose 50 J m^−2) was “delayed”. For the same molecule, the “migration of DNA without irradiation” value ([8]; control lanes) was “left the DNA intact and showed normal migration”.

With `N.N.[Cl][Pt][Cl]` [cisplatin, reference compound] the DNA photocleavage activity [9] was “less significantly”.

With `O=C([O-])CN1CCN(CC(=O)[O-])CCN(CC(=O)[O-])CCN(CC(=O)[O-])CC1.[Gd+3]` [GdDOTA, reference compound] the “clearance rate in the liver” value ([3]; mice, i.v. tail vein) was 0.016 enh/min.

In the case of `O.O=[N+]([O-])[O-].[Gd+3].[NH3+][Pt-2]([NH3+])([Cl])[n+]1ccc(C(=O)Nc2ccc(C#Cc3ccnc(CN4CCN(CC(=O)[O-])CCN(CC(=O)[O-])CCN(CC(=O)[O-])CC4)c3)cc2)cc1` [PtGdL], the “dosage concentration at which dramatic cell death can be observed” value ([1]; 730 nm laser excitation for 30 min) is reported as “less than 5 μM”, the “emission and cell death absent exposure to laser irradiation” value ([1]; no laser irradiation) is reported as “no significant emission and/or cell death” and the IC50 [2] is reported as ~23.6 µM and ~25 µM. For the same molecule, the “change of signal enhancement” value ([3]; after 24 hours) was “did not change greatly”, the “remanence time in renal cortex” value ([3]; mice, i.v. tail vein) was 4 to 18 h and the “delay in capture, depending on the tissue of interest” value ([3]; mice, liver, spleen, kidneys) was 6 to 9 min. The “PDI (DLS)” value [10] was 0.156, the “size of aggregates in solution (DLS)” value ([10]; single peak) was 672±24 nm and the IC50 [4] was 43.9 ± 1.1 µM. For the same molecule, the “pseudo-first order rate constant k for the dissociation of the cisplatin unit” value [11] was 0.051 min⁻¹.
